Source: paper PMC8379256, “A xanthene derivative, DS20060511, attenuates glucose intolerance by inducing skeletal muscle-specific GLUT4 translocation in mice” (Communications Biology, 2021)
“And” between values parts separate entries of the source, which are not always exact repeats. Equal entries are not always repeated.

What was measured:
[1] = tested on: C57BL/6 mice; experiment: Indirect calorimetry under the oral glucose tolerance test; assay type: in vivo, mouse; conditions: oral GTT; 30 mg/kg po; 1 h after glucose load
Excerpt: In the revised manuscript, we have added references
154–156. We think that the reference, PMID: 23349504, is not suitable for this context, because this […]
What is the faith of the glucose in response to DS20060511? Is it oxidized or stored as glycogen? Does it produce excessive oxidative stress? Please include such important measures.
Response: Thank you for your question. We agree that such information is important. In the revised manuscript, we have added data on the glycogen contents of the skeletal muscle, heart, and liver after 28 days of DS20060511 treatment in db/db mice, in Supplementary Fig. 5c and lines 241–243, as […]
liver, or in the glycogen contents of the muscle, heart, and liver (Supplementary Fig. 5b, c).” The […]
oxidized, and not stored as glycogen. We, however, regret not assessing the level of oxidative stress in the skeletal muscles of the db/db mice. To determine whether DS20060511 treatment might produce excessive oxidative stress, the data of indirect calorimetry under GTT in B6 mice may be […]
produce excessive oxidative stress, at least at the whole-body level in the normal state.
Indirect calorimetry under the oral glucose tolerance test. C57BL/6 mice (n = 6) that had been denied access to food overnight received oral administration of 30 […]
glucose load (1.5 g kg-1). Indirect calorimetry was performed for 1 h after the glucose load. […]

[2] = tested on: C57BL/6 mice; experiment: Oral glucose tolerance test (GTT) in C57BL/6 mice: blood glucose and plasma insulin; assay type: in vivo, mouse; set-up: Blood glucose AUC: unit not given here
Method: Fig. 2 Treatment with DS20060511 decreases the blood glucose levels via inducing GLUT4 translocation and increasing skeletal muscle glucose uptake. a, b Blood glucose levels after treatment with DS20060511 (30 mg kg^−1) in C57BL/6 mice that had received continued access to food (a) and mice that had been denied access to food overnight (b) (n = 8). Values shown are means ± SEM. **P < 0.01 vs. 0 min by one-way ANOVA followed by Dunnett’s test. c Blood glucose and plasma insulin levels during oral GTT in the C57BL/6 mice (n = 5–6). The mice received oral administration of vehicle or DS20060511 at the indicated dose, 15 min prior to glucose administration (1.5 g kg^−1). Values shown are means ± SEM. *P < 0.05, **P < 0.01 vs. vehicle by one-way ANOVA followed by Williams’ test. d [^3H]-2-DG uptake in the soleus muscle, gastrocnemius muscle (Gastro.), heart, and white adipose tissue (WAT) at 60 min during the intraperitoneal GTT in the C57BL/6 mice (n = 3). The mice received oral administration of vehicle or DS20060511 (30 mg kg^−1), 15 min prior to glucose administration (1 g kg^−1 glucose containing [^3H]-2-DG). […] Uncropped blots for e can be found in Supplementary Fig. 6.
Mice that had been denied access to food overnight received the indicated oral dose of DS20060511 or vehicle 15 min prior to the glucose load (1.5 g kg^−1, except for eNOS-knockout mice, which received 3.0 g kg^−1). Then, after the oral glucose load, the blood glucose levels were measured using Glutest Every in samples obtained from the tail vein at the indicated timepoints. Plasma insulin concentrations were also measured with an ELISA kit (Morinaga Institute of Biological Science, Yokohama, Japan) in blood samples collected from the tail vein at the indicated timepoints.

[3] = tested on: C57BL/6 mice; experiment: In vivo [3H]-2-DG uptake into tissues during intraperitoneal GTT; set-up: species or system mouse; conditions: for count (dpm) 2DG / count (dpm) Total / dpm/mg 2DG / dpm/mg 2DGP / dpm/mg Total / Ratio: 30 mg/kg; for Ratio: 2DGP relative to vehicle
Method: Tissue glucose uptake was examined by measuring the uptake of [^3H]-2-DG during an intraperitoneal GTT as described previously[46],[47], with minor modifications. Mice that had been denied access to food overnight received oral administration of 30 mg kg^−1 of DS20060511 or vehicle 15 min prior to the glucose load. The mice then received intraperitoneal glucose administration (1 g kg^−1 containing 100 μCi kg^−1 [^3H]-2-DG as tracer), followed by quick removal of the tissues 60 min later. Tissue samples were homogenized in 0.5% perchloric acid and centrifuged, and the supernatants were neutralized with KOH. One aliquot of the supernatants was used for measuring the total radioactivity ([^3H]-2-DG and [^3H]-2-DG 6-phosphate ([^3H]-2-DGP)). A second aliquot of the supernatants was treated with 1 N Ba(OH)2 and 1 N ZnSO4 to remove [^3H]-2-DGP, and the [^3H]-2-DG count was measured. 2-DG uptake into the tissue, which is rapidly metabolized to 2-DGP in the tissue, was estimated by subtracting the count of [^3H]-2-DG from the total count. ^3H-specific activities were counted using a liquid scintillation counter.

## COc1ccc2c(C)c(C(=O)O)ccc2c1C1C2=C(CC(C)(C)CC2=O)OC2=C1C(=O)CC(C)(C)C2 [DS20060511]
[1]
  VO2: no change in the VO2
[2]; all DS20060511-treated groups, Fig. 2c
  insulin secretion during oral GTT (in words): significantly decreased
[2]; oral GTT, 1 mg/kg
  Blood glucose AUC: 366 and 401 and 377 and 335 and 390 and 419
  Plasma insulin AUC: 0.29 and 0.49 and 0.32 and 0.27 and 0.43
[2]; oral GTT, 1 mg/kg po at -15 min, -15 min, 1 mg/kg
  Blood glucose: 83 mg/dL and 81 mg/dL and 91 mg/dL and 77 mg/dL and 94 mg/dL and 72 mg/dL
[2]; oral GTT, 1 mg/kg, 0 min
  Blood glucose: 104 mg/dL and 115 mg/dL and 92 mg/dL and 106 mg/dL and 89 mg/dL
[2]; oral GTT, 1 mg/kg, 15 min
  Blood glucose: 270 mg/dL and 311 mg/dL and 217 mg/dL and 301 mg/dL
[2]; oral GTT, 1 mg/kg, 30 min
  Blood glucose: 242 mg/dL and 212 mg/dL and 228 mg/dL and 193 mg/dL and 199 mg/dL and 254 mg/dL
  Plasma insulin: 0.30 ng/mL and 0.44 ng/mL and 0.25 ng/mL and 0.34 ng/mL and 0.42 ng/mL and 0.33 ng/mL
[2]; oral GTT, 1 mg/kg, 60 min
  Blood glucose: 171 mg/dL and 217 mg/dL and 165 mg/dL and 153 mg/dL and 199 mg/dL and 230 mg/dL
[2]; oral GTT, 1 mg/kg, 90 min
  Blood glucose: 118 mg/dL and 159 mg/dL and 127 mg/dL and 138 mg/dL and 142 mg/dL and 153 mg/dL
[2]; oral GTT, 1 mg/kg, 120 min
  Blood glucose: 106 mg/dL and 119 mg/dL and 109 mg/dL and 124 mg/dL and 132 mg/dL
[2]; oral GTT, 3 mg/kg
  Blood glucose AUC: 360 and 323 and 398 and 316 and 320 and 374
  Plasma insulin AUC: 0.28 and 0.40 and 0.34 and 0.29 and 0.31
[2]; oral GTT, 3 mg/kg, 0 min
  Blood glucose: 104 mg/dL and 117 mg/dL and 90 mg/dL
[2]; oral GTT, 3 mg/kg, 15 min
  Blood glucose: 263 mg/dL and 240 mg/dL and 249 mg/dL and 228 mg/dL
  Plasma insulin: 0.51 ng/mL and 0.58 ng/mL and 0.65 ng/mL and 0.53 ng/mL
[2]; oral GTT, 3 mg/kg, 30 min
  Blood glucose: 228 mg/dL and 164 mg/dL and 233 mg/dL and 181 mg/dL
  Plasma insulin: 0.28 ng/mL and 0.30 ng/mL and 0.37 ng/mL and 0.39 ng/mL and 0.26 ng/mL
[2]; oral GTT, 3 mg/kg, 60 min
  Blood glucose: 161 mg/dL and 142 mg/dL and 202 mg/dL and 152 mg/dL
[2]; oral GTT, 3 mg/kg, 90 min
  Blood glucose: 132 mg/dL and 126 mg/dL and 148 mg/dL and 100 mg/dL
[2]; oral GTT, 3 mg/kg, 120 min
  Blood glucose: 105 mg/dL and 122 mg/dL and 129 mg/dL
[2]; oral GTT, 3 mg/kg, -15 min
  Blood glucose: 82 mg/dL and 84 mg/dL and 94 mg/dL and 79 mg/dL
[2]; oral GTT, 10 mg/kg
  Blood glucose AUC: 294 and 310 and 309 and 270 and 269
  Plasma insulin AUC: 0.29 and 0.30 and 0.32 and 0.43 and 0.41
[2]; oral GTT, 10 mg/kg, 15 min
  Plasma insulin: 0.51 ng/mL and 0.50 ng/mL and 0.54 ng/mL and 0.40 ng/mL and 0.68 ng/mL
[2]; oral GTT, 10 mg/kg, 30 min
  Plasma insulin: 0.35 ng/mL and 0.28 ng/mL and 0.43 ng/mL and 0.31 ng/mL and 0.46 ng/mL
[2]; oral GTT, 30 mg/kg
  Blood glucose AUC: 258 and 200 and 219 and 225 and 241
  Plasma insulin AUC: 0.21 and 0.30 and 0.35 and 0.22 and 0.34
[2]; oral GTT, 30 mg/kg, 15 min
  Plasma insulin: 0.46 ng/mL and 0.58 ng/mL and 0.48 ng/mL and 0.34 ng/mL
[2]; oral GTT, given prior to glucose load, Fig. 2c
  blood glucose levels after oral glucose load (in words): dose-dependent suppression of rise of the blood glucose levels
[3]; Gastro.
  count (dpm) 2DG: 405 dpm and 366 dpm and 390 dpm
  count (dpm) Total: 1890 dpm and 1397 dpm and 1924 dpm
  dpm/mg 2DG: 63.3 dpm/mg and 57.2 dpm/mg and 60.9 dpm/mg
  dpm/mg 2DGP: 54.8 dpm/mg and 30.1 dpm/mg and 59.3 dpm/mg
  dpm/mg Total: 118.1 dpm/mg and 87.3 dpm/mg and 120.3 dpm/mg
  Ratio: 4.35 and 2.39 and 4.70
[3]; Heart
  count (dpm) 2DG: 398 dpm and 423 dpm and 382 dpm
  count (dpm) Total: 1218 dpm and 1277 dpm and 1201 dpm
  dpm/mg 2DG: 62.2 dpm/mg and 66.1 dpm/mg and 59.7 dpm/mg
  dpm/mg 2DGP: 39.3 dpm/mg and 40.3 dpm/mg and 40.4 dpm/mg
  dpm/mg Total: 101.5 dpm/mg and 106.4 dpm/mg and 100.1 dpm/mg
  Ratio: 0.90 and 0.93
[3]; Soleus
  count (dpm) 2DG: 214 dpm and 169 dpm and 183 dpm
  dpm/mg 2DG: 100.3 dpm/mg and 79.2 dpm/mg and 85.8 dpm/mg
  dpm/mg Total: 286.0 dpm/mg and 229.5 dpm/mg and 201.0 dpm/mg
  Ratio: 4.96 and 4.02 and 3.08
[3]; Soleus, 30 mg/kg po, 60 min during ip GTT
  count (dpm) Total: 572 dpm and 459 dpm and 402 dpm
[3]; Soleus, 2-DG uptake = Total minus 2DG
  dpm/mg 2DGP: 185.7 dpm/mg and 150.3 dpm/mg and 115.2 dpm/mg
[3]; WAT
  count (dpm) 2DG: 697 dpm and 877 dpm and 734 dpm
  count (dpm) Total: 1450 dpm and 1799 dpm and 1511 dpm
  dpm/mg 2DG: 34.9 dpm/mg and 43.9 dpm/mg and 36.7 dpm/mg
  dpm/mg 2DGP: 13.5 dpm/mg and 16.1 dpm/mg and 13.7 dpm/mg
  dpm/mg Total: 48.3 dpm/mg and 60.0 dpm/mg and 50.4 dpm/mg
  Ratio: 0.99 and 1.18 and 1.00
[3]; soleus and gastrocnemius muscles, ip GTT, 30 mg kg−1
  uptake of [3H]-2-DG (in words): significant increase
